The test system of assay [1] is mice impaired with scopolamine. Description: Morris Water Maze (MWM) task, scopolamine-impaired. Format: in vivo. Conditions: 1 mg/kg (5 μmol/kg) p.o., scopolamine 0.75 mg/kg s.c. As for the experimental part:
In an animal model of spatial memory, the efficacy of Compound A (7,8,9,10-tetrahydro-6H-azepino[4,5-g]quinoxaline) to attenuate water-maze performances of mice impaired with scopolamine (0.75 mg/kg, s.c.) was evaluated. Following a two-day acclimation period to the maze, mice were trained for 4 days to a platform location in the maze. During the training sessions, each animal was given four trials separated by 5 minutes between each trial. The platform location was constant for each animal. Compound A (1, 3 and 10 mg/kg or 5, 15.1 and 50 μmol/kg, p.o.) was administered 25 minutes prior to each of the four training days. Scopolamine was administered 15 minutes prior to each of the four training days. The probe trial (i.e., no platform present) was conducted on day 5 under drug-free (i.e., water instead of Compound A and saline instead of scopolamine) conditions. In the MWM model, Compound A (1, 3 and 10 mg/kg) was orally administered 25 minutes whereas scopolamine was subcutaneously administered 15 minutes prior to each of the four training days. During training days, each animal was given four trials separated by 5 minutes between trials. The probe trial was conducted on day 5 under drug-free (i.e., water instead of Compound A and saline instead of scopolamine) conditions.

The subject of assay [2] is animals impaired with scopolamine. Put plainly: Radial Arm Maze (RAM) task, scopolamine-induced cognitive deficits. Format: in vivo, rat. As to conditions: 3 mg/kg (15.1 μmol/kg) p.o. As for the experimental part:
Working memory is a cognitive domain known to be impaired in schizophrenia; the Radial Arm Maze task is commonly used to assess potential cognitive benefit derived from the test compounds. Using this assay, Compound A (7,8,9,10-tetrahydro-6H-azepino[4,5-g]quinoxaline) attenuated cognitive deficits induced by scopolamine in an animal model of working memory. Working memory was assessed in a 3 trial radial arm maze (RAM) task. The RAM task was conducted using an automated eight-arm maze (Med Associates, Inc.) The maze was located on a circular table approximately 88 cm above the floor with overhead lighting in a dedicated testing room and large, high contrast geometric shapes on the wall. […] The central platform measured 30.5 cm in diameter with eight arms (9 cm W×45.7 cm L×16.8 cm H) radiating from it. […] Activity on the maze was monitored by tracking quantitative activity (generated by infra-red beam breaks) on the computer interface and monitor screen.
Following the baseline assessment on day 1 and after re-attainment of test session criterion, animals were assessed for their sensitivity to chemically-induced cognitive impairment using the muscarinic antagonist scopolamine (0.2-0.4 mg/kg; s.c.). A dose of scopolamine was determined for each animal based on the minimum dose that produced significant and reliable cognitive impairment. […]

Assay [3] has as its system normal rats. Put plainly: Novel Object Recognition (NOR) task. Format: in vivo, rat. How it is done:
Episodic memory is a cognitive domain known to be impaired in Alzheimer's disease; the Novel Object Recognition task is a commonly used and quick, clean model used to assess potential cognitive benefit derived from the test compounds. Compound A (7,8,9,10-tetrahydro-6H-azepino[4,5-g]quinoxaline) improved long-term visual episodic/declarative memory as assessed by novel object recognition (NOR) task following oral dosing in normal rats. Memory was assessed by using the three-trial object recognition test. On the first day (exploratory trial), rats were allowed to explore an open arena (44.5×44.5×30.5 cm) for 6 min. On the second day (acquisition trial), rats were allowed to explore the same arena in the presence of two identical objects (both object A) for 3 minutes. On the third day (retention or recall trial), performance was evaluated by allowing the same animal to re-explore the arena for 3 minutes in the presence of two different objects: the familiar object A and a novel object B. An inter-trial interval of 24 hours was imposed between the three NOR trials. Recognition memory was assessed by comparing the time spent exploring a novel (object B) versus a familiar (object A) object during the recall trial. Recognition index was assessed for each animal and expressed as a ratio ((time B/time A+time B)×100).
Compound A was evaluated for its duration of effect in the NOR task in normal rats. Using similar experimental procedures as described earlier, 0.03, 0.1, and 0.3 mg/kg (0.15, 0.5 and 1.51 μmol/kg) Compound A was orally administered to animals 30 minutes prior to placement in the arena for the exploratory and acquisition trials. For the recall trial (i.e., third day of dosing), animals were placed in the arena at 6 h, post administration.
A follow-up NOR study evaluated the duration of effect of Compound A following a 6 h pre-treatment prior to the recall trial.

Molecules are shown by their SMILES.

Take `c1cnc2cc3c(cc2n1)CCNCC3` [Compound A, 7,8,9,10-tetrahydro-6H-azepino[4,5-g]quinoxaline]: the “effect on scopolamine-induced cognitive deficits, MWM” value in assay [1] is “reverse scopolamine-induced cognitive deficits”. Moreover, in assay [2], the “effect on scopolamine-induced cognitive deficits, RAM” value was “attenuated scopolamine-induced cognitive deficits”. The recognition index is 64±3% in assay [3] (0.03 mg/kg (0.15 μmol/kg) p.o., 6 h pre-treatment prior to the recall trial, vehicle 52±0.5%); 69±5% in assay [3] (0.3 mg/kg (1.5 μmol/kg) p.o., 30 minutes before the three trials, vehicle 50±0.5%); 68±3% in assay [3] (0.3 mg/kg (1.5 μmol/kg) p.o., 6 h pre-treatment prior to the recall trial, vehicle 52±0.5%); 65±3% in assay [3] (3 mg/kg (15.1 μmol/kg) p.o., 30 minutes before the three trials, vehicle 50±0.5%). The “duration of effect on recognition memory index” value in assay [3] (0.15 and 1.51 μmol/kg p.o., recall trial 6 h post administration) is on record as “facilitated recognition memory index for up to 6 h after dosing”. Moreover, the “effect on recognition memory (enhancement of recognition index vs vehicle)” value in assay [3] (0.3 and 3 mg/kg p.o., 30 minutes before the three trials) was “facilitated recognition memory”.
